Assay results from ChEMBL document CHEMBL1201862, “PubChem BioAssay data set” (2004).
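Protocol summary: plate cells (96-well), add compound at 5 concentrations, incubate 48 h, interpolate endpoints linearly. At the GI50, growth is halved.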 The source made the active and inactive calls. Cut-off read from the data, not from the text of the source: active = GI50 up to about 1.1 µM and inactive = higher.

Assays:
Assay in all cases: inhibition of tumour cell growth, NCI panel, 48 h
786-0 = test system: 786-0
A549 = test system: A549
CCRF-CEM = test system: CCRF-CEM
COLO 205 = test system: COLO 205
DLD-1 = test system: DLD-1
DMS-114 = test system: DMS-114
DMS-273 = test system: DMS-273
EKVX = test system: EKVX
HCC 2998 = test system: HCC 2998
HCT-116 = test system: HCT-116
HCT-15 = test system: HCT-15
HL-60 = test system: HL-60
HOP-62 = test system: HOP-62
HT-29 = test system: HT-29
IGROV-1 = test system: IGROV-1
K562 = test system: K562
KM-20L2 = test system: KM-20L2
LOX IMVI = test system: LOX IMVI
LXFL 529 = test system: LXFL 529
M14 = test system: M14
M19-MEL = test system: M19-MEL
MOLT-4 = test system: MOLT-4
NCI-H226 = test system: NCI-H226
NCI-H23 = test system: NCI-H23
NCI-H460 = test system: NCI-H460
OVCAR-4 = test system: OVCAR-4
OVCAR-5 = test system: OVCAR-5
OVCAR-8 = test system: OVCAR-8
RPMI-8226 = test system: RPMI-8226
RXF 393 = test system: RXF 393
SF-268 = test system: SF-268
SF-539 = test system: SF-539
SK-MEL-28 = test system: SK-MEL-28
SK-MEL-5 = test system: SK-MEL-5
SK-OV-3 = test system: SK-OV-3
SN12C = test system: SN12C
SNB-19 = test system: SNB-19
SNB-75 = test system: SNB-75
SNB-78 = test system: SNB-78
SR = test system: SR
SW-620 = test system: SW-620
TK-10 = test system: TK-10
U-251 = test system: U-251
UACC-257 = test system: UACC-257
UACC-62 = test system: UACC-62
UO-31 = test system: UO-31
XF498 = test system: XF498

Measured: GI50

CCN(CC)CC(=O)NC1c2ccccc2Oc2ccccc21
inactive: 786-0 > 100 µM | A549 > 100 µM | CCRF-CEM > 100 µM | COLO 205 > 100 µM | DLD-1 > 100 µM | DMS-114 > 100 µM | DMS-273 > 100 µM | EKVX > 100 µM | HCC 2998 > 100 µM | HCT-116 > 100 µM | HL-60 > 100 µM | HOP-62 > 100 µM | HT-29 > 100 µM | IGROV-1 > 100 µM | K562 > 100 µM | KM-20L2 > 100 µM | LOX IMVI > 100 µM | LXFL 529 > 100 µM | M14 > 100 µM | M19-MEL > 100 µM | MOLT-4 > 100 µM | NCI-H226 > 100 µM | NCI-H23 > 100 µM | NCI-H460 > 100 µM | OVCAR-4 > 100 µM | OVCAR-5 > 100 µM | OVCAR-8 > 100 µM | RPMI-8226 > 100 µM | RXF 393 > 100 µM | SF-268 > 100 µM | SF-539 > 100 µM | SK-MEL-28 > 100 µM | SK-MEL-5 > 100 µM | SK-OV-3 > 100 µM | SN12C > 100 µM | SNB-19 > 100 µM | SNB-75 > 100 µM | SNB-78 > 100 µM | SR > 100 µM | SW-620 > 100 µM | TK-10 > 100 µM | U-251 > 100 µM | UACC-257 > 100 µM | UACC-62 > 100 µM | UO-31 > 100 µM | XF498 > 100 µM
> 100 µM: HCT-15
